Data as given in paper PMC12507957 (Drug Delivery and Translational Research, 2025).
Where two headings read alike, the source gives them in different places.

Columns and labels:
[1] = Mass balance studies after 48-h skin permeation of MTG in solvents; assay type: in vitro ADME, porcine; settings: for recovery at 48 h, 5 %w/v: pig
Procedure: The in vitro permeation study was performed in triplicate using Franz diffusion cell apparatus with a diffusion area of ~ 0.8 cm^2 and a receptor volume of ~ 3 mL. The porcine skin was thawed at room temperature and cut into an appropriate size before mounting on the Franz diffusion cells. The receptor compartment was filled with PBS containing 0.02%w/v of sodium azide and a selected antioxidant. The Franz diffusion cells were placed into a water bath to maintain the skin temperature at 32 ± 0.5 °C. […] After 48-h permeation studies, the mass balance studies were performed.
Subsequently, the surface of the skin was washed twice with 500 μL of methanol before adding to the same Eppendorf tube containing the cotton buds. The skin was removed from the dissembled Franz diffusion cell and cut into pieces before placing in another Eppendorf tube containing 1 mL of methanol. All samples were vortexed and analysed using HPLC (Sect. HPLC analysis).
(§1) Samples were analysed using Shimadzu liquid chromatographic system (Kyoto, Japan) with SPD-20A UV–vis detector set at 254 nm. A reverse phase ZORBAX Eclipse Plus C18 column (Agilent Technologies, 150 × 4.6 mm ID × 3.5 μm) coupled with a C18 guard column (Phenomenex SecurityGuard™, 4 × 3.0 mm ID × 5 μm) was employed as the stationary phase. A gradient elution method with acetonitrile and 0.1%v/v of formic acid as the mobile phase (30:70 to 70:30 (v/v) over 1 min and held until 4 min; then returned to 30:70 (v/v) from 4 to 6 min and held up until 10 min) at a flow rate of 1.2 mL/min was used. The injection volume was set at 100 μL and the total run time was 10 min with a retention time of ~ 4 min.

[2] = Stability studies of MTG in simple solvent systems with and without BHT; assay type: physicochemical
Procedure: as §1, with “min. The limits of detection and quantification were 0.47 and 1.43 μg/mL for a lower concentration drug range (0.5–10 μg/mL) and 4.29 and 13.01 μg/mL for a higher concentration drug range (10–175 μg/mL), respectively. The linearity for both calibration curves was excellent (R^2 > 0.999).” for “min.”

[3] = 32 °C; cited from earlier work
[4] = 5%w/v MTG in DMSO, receptor PBS with 0.01%w/v ascorbic acid (DMSO-AA), 48 h
[5] = 5%w/v MTG in Labrasol, receptor PBS with 0.01%w/v ascorbic acid (Labrasol-AA), 48 h
[6] = 5%w/v MTG in Labrasol, receptor PBS without ascorbic acid, 48 h
[7] = 5%w/v MTG in Lauroglycol, receptor PBS with 0.01%w/v ascorbic acid (Lauroglycol-AA), 48 h
[8] = 5%w/v MTG in Lauroglycol, receptor PBS without ascorbic acid, 48 h
[9] = 5%w/v MTG in Maisine, receptor PBS with 0.01%w/v ascorbic acid (Maisine-AA), 48 h
[10] = 5%w/v MTG in Maisine, receptor PBS without ascorbic acid, 48 h
[11] = 5%w/v MTG in PG, receptor PBS with 0.01%w/v ascorbic acid (PG-AA), 48 h
[12] = 5%w/v MTG in Transcutol, receptor PBS with 0.01%w/v ascorbic acid (Transcutol-AA), 48 h
[13] = 5%w/v MTG in Transcutol, receptor PBS without ascorbic acid, 48 h

CC[C@@H]1CN2CCc3c([nH]c4cccc(OC)c34)[C@@H]2C[C@@H]1/C(=C\OC)C(=O)OC [MTG, mitragynine]
Permeation (%) [1, 4]: 0.77 ± 0.12% | Skin extraction [1, 4]: 0.91 ± 0.19% | Washing (on skin surface) [1, 4]: 48.69 ± 0.86% | Permeation (%) [1, 5]: 0.08 ± 0.05% | Skin extraction [1, 5]: 3.23 ± 1.80% | Washing (on skin surface) [1, 5]: 70.50 ± 5.24% | Permeation (%) [1, 6]: 0.07 ± 0.07% | Skin extraction [1, 6]: 3.67 ± 0.45% | Washing (on skin surface) [1, 6]: 65.82 ± 5.20% | Permeation (%) [1, 7]: 0.18 ± 0.12% | Skin extraction [1, 7]: 1.96 ± 1.22% | Washing (on skin surface) [1, 7]: 57.28 ± 15.05% | Permeation (%) [1, 8]: 0.04 ± 0.01% | Skin extraction [1, 8]: 0.52 ± 0.38% | Washing (on skin surface) [1, 8]: 66.42 ± 2.26% | Permeation (%) [1, 9]: 0.42 ± 0.13% | Skin extraction [1, 9]: 1.34 ± 0.55% | Washing (on skin surface) [1, 9]: 60.12 ± 1.46% | Permeation (%) [1, 10]: 0.11 ± 0.10% | Skin extraction [1, 10]: 0.45 ± 0.18% | Washing (on skin surface) [1, 10]: 61.67 ± 5.42% | Permeation (%) [1, 11]: 0.30 ± 0.11% | Skin extraction [1, 11]: 1.04 ± 0.20% | Washing (on skin surface) [1, 11]: 45.95 ± 5.07% | Permeation (%) [1, 12]: 0.51 ± 0.22% | Skin extraction [1, 12]: 2.29 ± 0.57% | Washing (on skin surface) [1, 12]: 50.98 ± 9.49% | Permeation (%) [1, 13]: 0.19 ± 0.07% | Skin extraction [1, 13]: 2.08 ± 1.11% | Washing (on skin surface) [1, 13]: 71.94 ± 8.01% | recovery at 48 h, 5 %w/v ([1]; 5%w/v MTG in DMSO, receptor PBS with 0.01%w/v ascorbic acid (DMSO-AA), 48 h, read-out: Total percentage (mass balance recovery)): 50.7 ± 1.17% | recovery at 48 h, 5 %w/v ([1]; 5%w/v MTG in Labrasol, receptor PBS with 0.01%w/v ascorbic acid (Labrasol-AA), 48 h, read-out: Total percentage (mass balance recovery)): 75.7 ± 7.09% | recovery at 48 h, 5 %w/v ([1]; 5%w/v MTG in Labrasol, receptor PBS without ascorbic acid, 48 h, read-out: Total percentage (mass balance recovery)): 70.1 ± 5.72% | recovery at 48 h, 5 %w/v ([1]; 5%w/v MTG in Lauroglycol, receptor PBS without ascorbic acid, 48 h, read-out: Total percentage (mass balance recovery)): 67.4 ± 2.65% | recovery at 48 h, 5 %w/v ([1]; 5%w/v MTG in PG, receptor PBS with 0.01%w/v ascorbic acid (PG-AA), 48 h, read-out: Total percentage (mass balance recovery)): 47.6 ± 5.37% | recovery at 48 h, 5 %w/v ([1]; 5%w/v MTG in Transcutol, receptor PBS without ascorbic acid, 48 h, read-out: Total percentage (mass balance recovery)): 75.4 ± 9.19% | recovery at 48 h, 5 %w/v ([1]; Mitragynine recovery in mass balance studies, 5%w/v in single solvent systems): < 80% | Percentage recovery of MTG ([2]; 200 μg/mL in DMSO without BHT, 32 °C, after 96 h): 67.68 ± 1.22% | Percentage recovery of MTG ([2]; 200 μg/mL in Labrasol with 0.01%w/v BHT, 32 °C, after 96 h): 46.34 ± 2.49% | Percentage recovery of MTG ([2]; 200 μg/mL in Labrasol without BHT, 32 °C, after 96 h): 4.39 ± 0.70% | Percentage recovery of MTG ([2]; 200 μg/mL in Lauroglycol without BHT, 32 °C, after 96 h): 30.84 ± 1.21% | Percentage recovery of MTG ([2]; 200 μg/mL in Maisine without BHT, 32 °C, after 96 h): 19.65 ± 1.17% | Percentage recovery of MTG ([2]; 200 μg/mL in PG without BHT, 32 °C, after 96 h): 73.82 ± 1.05% | Percentage recovery of MTG ([2]; 200 μg/mL in Transcutol without BHT, 32 °C, after 96 h): 40.23 ± 5.46% | Percentage recovery of MTG ([2]; DMSO, PG and Transcutol with at least 0.05%w/v of BHT): above 80% | Percentage recovery of MTG ([2]; in all solvents (without BHT) after 96 h): < 80% | Percentage recovery of MTG ([2]; remaining solvents (Transcutol, Lauroglycol, Maisine, Labrasol) without BHT, after 96 h): < 50% | Saturated solubility of MTG in PBS [3]: 77.10 ± 5.17 µg/mL
